Experimental data from publication PMC6895141, “Antimicrobial Efficacy of Indolicidin Against Multi-Drug Resistant Enteroaggregative Escherichia coli in a Galleria mellonella Model” (Frontiers in Microbiology, 2019).
≈ marks a conversion by molar mass, not a printed value.

How the values were obtained:
MDR-EAEC strains = experiment: Survival of MDR-EAEC infected G. mellonella larvae; type: in vivo, Galleria mellonella; conditions: larvae infected with LD50 dose (10^6 CFU) MDR-EAEC cocktail, treated 3 h pi with MIC dose (10 μL); upto 120 h pi; n = 40 larvae per group
Protocol: In vivo assays were performed using the final instar of G. mellonella larvae that were stored in wood shavings at 15°C in the dark prior to the experiment ([Morgan et al., 2014]). The larvae were kept in a germ-free environment and were provided with ad libitum food during the course of experiment. Initially, LD50 dose of each MDR-EAEC strains was determined in G. mellonella larvae, and the validated LD50 dose was used further in the in vivo studies to evaluate the antibacterial effect of Indolicidin (Supplementary File S9) by injection with a Hamilton syringe (26 gage) via the last right pro-leg.
(§1) Galleria mellonella larvae (n = 40 larvae per group) were grouped as follows: Group I (infected group), Groups II and III (infection + treatment groups), Group IV (PBS control), and Group V (AMP control). Larvae from groups I to III were infected with cocktail of MDR-EAEC strains (LD50 dose; 10 μL); groups II and III were administered 3 h post-infection (pi) with MIC dose (10 μL) of Indolicidin and Meropenem, respectively; Group IV were injected with sterile PBS whereas, group V was administered with MIC dose of Indolicidin.

G. mellonella larvae = experiment: Melanization assay in G. mellonella larvae; type: in vivo, Galleria mellonella; conditions: infected larvae treated 3 h pi; absorbance 450 nm of hemolymph, 6 to 96 h pi
Protocol: as §1
For determination of the melanin production, an immune marker, the G. mellonella (n=3 larvae per group) were investigated at an interval of 6 h pi for 24 h, followed by 24 h interval till 96 h. An aliquot of the pooled haemolymph (100 µl) was transferred into 96-well microtiter plate for measuring the optical density (OD) at a wavelength of 450 nm using ELISA plate reader (Thermo Scientific Multiskan GO) with OD values of haemolymph collected from apparently healthy un-inoculated larvae as the background control.

MDR-EAEC isolates = experiment: In vitro dose- and time-dependent killing kinetics; type: cell-based, enteroaggregative Escherichia coli; conditions: Meropenem 10 μg/ml
Protocol: The in vitro growth kinetics of MDR-EAEC isolates was evaluated by incubating the log-phase bacterial cultures of each MDR-EAEC isolate (ca. 1 × 10^7 CFU/mL) in CA-MH broth with MIC (1X and 2X) concentrations of Indolicidin, in triplicates (Supplementary File S8). The desired bacterial numbers for each MDR-EAEC isolate and Indolicidin were suspended in CA-MH broth as follows: Group I, 10^7 CFU of MDR-EAEC (50 μL) with 1X MIC Indolicidin (50 μL); Group II, 10^7 CFU of MDR- EAEC (50 μL) with MBC Indolicidin (50 μL); Group III, 10^7 CFU of MDR- EAEC (50 μL) with Meropenem (10 μg/ml; 50 μL); Group IV, 10^7 CFU of MDR- EAEC (50 μL) with CA-MH broth (50 μL) and Group V, 10^7 CFU of MDR- EAEC (50 μL) with 4X MIC Indolicidin (50 μL). To enumerate the antibacterial effect of Indolicidin on MDR-EAEC isolates, an aliquot at 10 μL from all the five groups were drawn at 0, 30, 60, 90, 120, 150, 180 min, 24, 48, and 72 h. These aliquots were serially diluted 10-fold in normal saline solution (prepared using 0.90% of sodium chloride, HiMedia Laboratories); the last three dilutions placed on EMB agar plates containing 100 μg of ampicillin ([Miles et al., 1938]) were counted after 24 h of incubation at 37°C, and the bacterial counts were expressed as log10CFU/mL. […]

[1] = system: MDR-EAEC isolate KY941936.1 (MDR 1); experiment: In vitro antibiotic susceptibility testing; type: cell-based, enteroaggregative Escherichia coli; parameters: key to Antibiotic Susceptibility testing / MIC Values, class symbol: S – Sensitive; R- Resistant; conditions: for Antibiotic Susceptibility testing: CLSI 2018; for MIC Values, class symbol: cells printed as S; for MIC: numeric cells
Text: (§2) The typical EAEC strains, isolated from the fecal samples of human infants with GenBank accession numbers, KY941936.1 (MDR 1); KY941937.1 (MDR 2); and KY941938.1 (MDR 3), available at Division of Veterinary Public Health, Indian Veterinary Research Institute, Bareilly were re-validated as described earlier ([Vijay et al., 2015]) and tested for antibiotic susceptibility ([Clinical and Laboratory Standards Institute [CLSI], 2018]). E. coli ATCC 25922 used as quality control strain was provided by the Department of Veterinary Public Health, College of Veterinary and Animal Sciences, Pookode, India. These bacterial strains were grown on nutrient agar medium at 37°C.

[2] = system: MDR-EAEC isolate KY941937.1 (MDR 2); experiment: In vitro antibiotic susceptibility testing; type: cell-based, enteroaggregative Escherichia coli; parameters: key to Antibiotic Susceptibility testing / MIC Values, class symbol: S – Sensitive; R- Resistant; conditions: for Antibiotic Susceptibility testing: CLSI 2018; for MIC Values, class symbol: cells printed as S; for MIC: numeric cells
Text: as §2

[3] = system: MDR-EAEC isolate KY941938.1 (MDR 3); experiment: In vitro antibiotic susceptibility testing; type: cell-based, enteroaggregative Escherichia coli; parameters: key to Antibiotic Susceptibility testing / MIC Values, class symbol: S – Sensitive; R- Resistant; conditions: for Antibiotic Susceptibility testing: CLSI 2018; for MIC Values, class symbol: cells printed as S; for MIC: numeric cells
Text: as §2

| Compound | Antibiotic Susceptibility testing [1] | MIC Values, class symbol [1] | Antibiotic Susceptibility testing [2] | MIC Values, class symbol [2] | Antibiotic Susceptibility testing [3] | MIC Values, class symbol [3] | MIC ([2]; Escherichia coli) | MIC ([3]; Escherichia coli) | further results |
| --- | --- | --- | --- | --- | --- | --- | --- | --- | --- |
| C[C@@H](O)[C@H]1C(=O)N2C(C(=O)O)=C(S[C@@H]3CN[C@H](C(=O)N(C)C)C3)[C@H](C)[C@H]12 [Meropenem] | – | – | – | – | – | – | – | – | survival rate (MDR-EAEC strains): 85%; melanization (G. mellonella larvae): the melanization was lower at 6 h pi, reached its peak at 18 h pi and thereafter gradually declined; time to similar inhibition (complete elimination) in time-kill kinetic assay (MDR-EAEC isolates): 60 min |
| C[C@@H](O)[C@H]1C(=O)N2C(C(=O)O)=C(SCCN=CN)C[C@H]12 [IMI, Imipenem] | S | S | S | S | S | S | – | – | – |
| CC1(C)S[C@@H]2[C@H](NC(=O)[C@H](N)c3ccccc3)C(=O)N2[C@H]1C(=O)O [AMP, Ampicillin] | R | – | R | – | R | – | > 240 µM | > 240 µM | MIC ([1]; Escherichia coli): > 240 µM |
| Co-trimoxazole [COT] | R | – | R | – | R | – | – | – | MIC [1]: >240 µM; MIC [2]: >240 µM; MIC [3]: >240 µM |
| CO/N=C(\C(=O)N[C@@H]1C(=O)N2C(C(=O)O)=C(CSc3nc(=O)c(=O)[nH]n3C)CS[C@H]12)c1csc(N)n1 [CTR, Ceftriaxone] | S | S | R | – | R | – | > 240 µM | > 240 µM | – |
| CNC(C)C1CCC(N)C(OC2C(N)CC(N)C(OC3OCC(C)(O)C(NC)C3O)C2O)O1 (centres unmarked) [GEN, Gentamicin] | S | S | S | S | S | S | – | – | – |
| Cc1cc(NS(=O)(=O)c2ccc(N)cc2)no1 [SXT, Sulfamethoxazole] | R | – | S | – | R | – | – | – | – |
| Colistin sulphate | S | S | S | S | S | S | – | – | – |
| O=C(O)c1cn(C2CC2)c2cc(N3CCNCC3)c(F)cc2c1=O [CIP, Ciprofloxacin] | – | – | – | – | – | – | 120 µM (≈ 39.8 µg/mL) | 60 µM (≈ 19.9 µg/mL) | – |
| CN(C)[C@@H]1C(O)=C(C(N)=O)C(=O)[C@@]2(O)C(O)=C3C(=O)c4c(O)cccc4[C@@](C)(O)[C@H]3C[C@@H]12 [TE, Tetracycline] | R | – | R | – | R | – | 2 µM (≈ 0.889 µg/mL) | 30 µM (≈ 13.3 µg/mL) | MIC ([1]; Escherichia coli): 60 µM (≈ 26.7 µg/mL) |
| O=C(N[C@H](CO)[C@H](O)c1ccc([N+](=O)[O-])cc1)C(Cl)Cl [CL, Chloramphenicol] | S | S | S | S | S | S | – | – | – |
